Reference: US20260092083A1, “VANCOMYCIN DERIVATIVES WITH SIDEROPHORE MODIFICATION AS NOVEL REPURPOSED ANTIBIOTICS TO COMBAT GRAM-NEGATIVE BACTERIAL INFECTION” (priority 2023, published 2026)
Values after ≈ are worked out from the molar mass of the structure shown.

Columns and labels:
Format in all cases: cell-based
[1] = test system: P. aeruginosa (multi-pump-gene mutant) PAM1626; assay: Broth microdilution MIC, P. aeruginosa efflux-deficient; settings: Pseudomonas aeruginosa, read-out: MIC (μg/mL) Gram-negative PSA Efflux
Description: (§1) The test compounds including vancomycin hydrochloride were supplied as a 6.4 mg/mL solution in 100% dimethyl sulfoxide (DMSO) aliquoted into individual wells of a 96-well plate (50 μL per well). […] Standardized inocula were added to the MIC test plates, which were incubated for the prescribed times at 35° C. The N. gonorrhoeae strain was incubated in an atmosphere containing 5% CO2.
(§2) The final optical density of each well at 600 nm was measured using a Tecan Spark plate reader. The compound concentration versus OD600 data were then curve fit using custom software. An MIC value was defined as the lowest compound concentration that led to an OD600 value≤0.15 for the E. coli, K. pneumoniae, P. aeruginosa, A. baumannii, or S. aureus strains. For the N. gonorrhoeae strain, an OD600 value≤0.19 was used as a cutoff to define an MIC value; this higher cut-off value was required because the N. gonorrhoeae MIC plates were covered with plastic seals that increased the background OD600 value.
(§3) JMI Laboratories followed current CLSI quality assurance practices when performing the susceptibility tests. MIC values were validated by concurrently testing the CLSI-recommended ATCC QC reference strains S. aureus ATCC 29213 and K. pneumoniae ATCC 700603. The inoculum density during susceptibility testing was monitored by bacterial colony counts. Where applicable, QC ranges for tested reference strains were those ranges approved or published by CLSI for testing in CAMHB. […] Importantly, the CLSI reference method for testing N. gonorrhoeae is the agar dilution MIC method, which was not used here. Thus, CLSI MIC QC ranges for N. gonorrhoeae could not be applied to the antimicrobials studied here.
(§4) Abbreviations: EC, E. coli (wild-type) BW25113; EC efflux^−, E. coli (tolC) JW5503-1; KPN, K. pneumoniae ATCC 700603; PSA, P. aeruginosa PAO1; PSA efflux^−, P. aeruginosa (multi-pump-gene mutant) PAM1626; ACB, A. baumannii JMI #1186154; GC, N. gonorrhoeae WHO-Z; SA, S. aureus ATCC 29213. Broth microdilution MIC values were measured in iron-depleted CAMHB for all strains except for GC, which was tested in fastidious broth.

E. coli (tolC) JW5503-1 = assay: Broth microdilution MIC, E. coli efflux-deficient (tolC); settings: Escherichia coli, read-out: MIC (μg/mL) Gram-negative EC Efflux
Description: as §1, §2, §3, §4

[2] = test system: A. baumannii JMI #1186154; assay: Broth microdilution MIC, A. baumannii; settings: Acinetobacter baumannii, iron-depleted CAMHB, OD600 ≤0.15, read-out: MIC (μg/mL) Gram-negative ACB
Description: as §1, §2, §3, §4

N. gonorrhoeae WHO-Z = assay: Broth microdilution MIC, N. gonorrhoeae; settings: Neisseria gonorrhoeae, read-out: MIC (μg/mL) Gram-negative GC
Description: as §1, §2, §3, §4

[3] = test system: K. pneumoniae ATCC 700603; assay: Broth microdilution MIC, K. pneumoniae; settings: Klebsiella pneumoniae, ATCC700603, read-out: MIC (μg/mL) Gram-negative KPN
Description: as §1, §2, §3, §4

S. aureus ATCC 29213 = assay: Broth microdilution MIC, S. aureus; settings: Staphylococcus aureus, ATCC29213, iron-depleted CAMHB, OD600 ≤0.15, read-out: MIC (μg/mL) Gram positive SA
Description: as §1, §2, §3, §4

P. aeruginosa PAO1 = assay: Broth microdilution MIC, P. aeruginosa; settings: Pseudomonas aeruginosa, iron-depleted CAMHB, OD600 ≤0.15, read-out: MIC (μg/mL) Gram-negative PSA
Description: as §1, §2, §3, §4

[4] = test system: E. coli (wild-type) BW25113; assay: Broth microdilution MIC, E. coli wild-type; settings: Escherichia coli, iron-depleted CAMHB, OD600 ≤0.15, read-out: MIC (μg/mL) Gram-negative EC
Description: as §1, §2, §3, §4

Compound | MIC [1] [µg/mL] | MIC (E. coli (tolC) JW5503-1) [µg/mL] | MIC [2] [µg/mL] | MIC (N. gonorrhoeae WHO-Z) [µg/mL] | MIC [3] [µg/mL] | MIC (S. aureus ATCC 29213) [µg/mL] | MIC (P. aeruginosa PAO1) [µg/mL] | MIC [4] [µg/mL]
CNC(CC(C)C)C(=O)N[C@H]1C(=O)N[C@@H](CC(N)=O)C(=O)N[C@H]2C(=O)N[C@H]3C(=O)N[C@H](C(=O)N[C@@H](C(=O)NCCNC(=O)c4ccc(O)c(O)c4Cl)c4cc(O)cc(O)c4-c4cc3ccc4O)[C@H](O)c3ccc(c(Cl)c3)Oc3cc2cc(c3OC2O[C@H](CO)C(O)C(O)[C@H]2O[C@H]2CC(C)(N)[C@H](O)C(C)O2)Oc2ccc(cc2Cl)[C@H]1O (stereo in doubt) [Compound 3] | > 64 | > 64 | 2 (≈ 1.2 µM) | > 64 | > 64 | 4 (≈ 2.41 µM) | > 64 | 16 (≈ 9.63 µM)
CNC(CC(C)C)C(=O)N[C@H]1C(=O)N[C@@H](CC(N)=O)C(=O)N[C@H]2C(=O)N[C@H]3C(=O)N[C@H](C(=O)N[C@@H](C(=O)NCCOCCNC(=O)c4ccc(O)c(O)c4Cl)c4cc(O)cc(O)c4-c4cc3ccc4O)[C@H](O)c3ccc(c(Cl)c3)Oc3cc2cc(c3OC2O[C@H](CO)C(O)C(O)[C@H]2O[C@H]2CC(C)(N)[C@H](O)C(C)O2)Oc2ccc(cc2Cl)[C@H]1O (stereo in doubt) [Compound 10] | > 64 | > 64 | 2 (≈ 1.17 µM) | > 64 | > 64 | 4 (≈ 2.34 µM) | > 64 | 16 (≈ 9.38 µM)
CN[C@H](CC(C)C)C(=O)N[C@H]1C(=O)N[C@@H](CC(N)=O)C(=O)N[C@H]2C(=O)N[C@H]3C(=O)N[C@H](C(=O)N[C@H](C(=O)NCCOCCOCCNC(=O)c4ccc(O)c(O)c4Cl)c4cc(O)cc(O)c4-c4cc3ccc4O)[C@H](O)c3ccc(c(Cl)c3)Oc3cc2cc(c3O[C@@H]2O[C@H](CO)C(O)C(O)[C@H]2O[C@H]2CC(C)(N)[C@H](O)[C@H](C)O2)Oc2ccc(cc2Cl)[C@H]1O (stereo in doubt) [Compound 11] | > 64 | > 64 | 1 (≈ 0.571 µM) | > 64 | > 64 | 4 (≈ 2.29 µM) | > 64 | 64 (≈ 36.6 µM)
CNC(CC(C)C)C(=O)N[C@H]1C(=O)N[C@@H](CC(N)=O)C(=O)N[C@H]2C(=O)N[C@H]3C(=O)N[C@H](C(=O)N[C@@H](C(=O)NCc4cn(CCNC(=O)c5cccc(O)c5O)nn4)c4cc(O)cc(O)c4-c4cc3ccc4O)[C@H](O)c3ccc(c(Cl)c3)Oc3cc2cc(c3OC2O[C@H](CO)C(O)C(O)[C@H]2O[C@H]2CC(C)(N)[C@H](O)C(C)O2)Oc2ccc(cc2Cl)[C@H]1O (stereo in doubt) [Compound 14] | > 64 | > 64 | 16 (≈ 9.36 µM) | > 64 | > 64 | 4 (≈ 2.34 µM) | > 64 | > 64
CN[C@H](CC(C)C)C(=O)N[C@H]1C(=O)N[C@@H](CC(N)=O)C(=O)N[C@H]2C(=O)N[C@H]3C(=O)N[C@H](C(=O)N[C@H](C(=O)NCCOCCOCCNS(=O)(=O)c4ccc(O)c(O)c4)c4cc(O)cc(O)c4-c4cc3ccc4O)[C@H](O)c3ccc(c(Cl)c3)Oc3cc2cc(c3O[C@@H]2O[C@H](CO)C(O)C(O)[C@H]2O[C@H]2CC(C)(N)[C@H](O)[C@H](C)O2)Oc2ccc(cc2Cl)[C@H]1O (stereo in doubt) [Compound 18] | > 64 | > 64 | 1 (≈ 0.571 µM) | > 64 | > 64 | 4 (≈ 2.28 µM) | > 64 | 64 (≈ 36.5 µM)
CNC(CC(C)C)C(=O)NC1C(=O)NC(CC(N)=O)C(=O)NC2C(=O)NC3C(=O)NC(C(=O)N[C@H](C(=O)NCCCNC(=O)c4cc(=O)c(O)c[nH]4)c4cc(O)cc(O)c4-c4cc3ccc4O)C(O)c3ccc(c(Cl)c3)Oc3cc2cc(c3OC2OC(CO)C(O)C(O)C2OC2CC(C)(N)C(O)C(C)O2)Oc2ccc(cc2Cl)C1O (stereo in doubt) [Compound 20] | 64 (≈ 39 µM) | 64 (≈ 39 µM) | 32 (≈ 19.5 µM) | > 64 | > 64 | 32 (≈ 19.5 µM) | 64 (≈ 39 µM) | 32 (≈ 19.5 µM)
CNC(CC(C)C)C(=O)NC1C(=O)NC(CC(N)=O)C(=O)NC2C(=O)NC3C(=O)NC(C(=O)N[C@H](C(=O)NCCCCNC(=O)c4cc(=O)c(O)c[nH]4)c4cc(O)cc(O)c4-c4cc3ccc4O)C(O)c3ccc(c(Cl)c3)Oc3cc2cc(c3OC2OC(CO)C(O)C(O)C2OC2CC(C)(N)C(O)C(C)O2)Oc2ccc(cc2Cl)C1O (stereo in doubt) [Compound 21] | > 64 | 64 (≈ 38.6 µM) | 32 (≈ 19.3 µM) | > 64 | > 64 | 32 (≈ 19.3 µM) | 64 (≈ 38.6 µM) | 32 (≈ 19.3 µM)
CNC(CC(C)C)C(=O)NC1C(=O)NC(CC(N)=O)C(=O)NC2C(=O)NC3C(=O)NC(C(=O)N[C@H](C(=O)NCCCN4C(=O)c5cc(O)c(O)cc5C4=O)c4cc(O)cc(O)c4-c4cc3ccc4O)C(O)c3ccc(c(Cl)c3)Oc3cc2cc(c3OC2OC(CO)C(O)C(O)C2OC2CC(C)(N)C(O)C(C)O2)Oc2ccc(cc2Cl)C1O (stereo partly drawn) [Compound 1] | > 64 | 64 (≈ 38.4 µM) | 32 (≈ 19.2 µM) | > 64 | > 64 | 8 (≈ 4.8 µM) | > 64 | 64 (≈ 38.4 µM)
CN[C@H](CC(C)C)C(=O)N[C@H]1C(=O)N[C@@H](CC(N)=O)C(=O)N[C@H]2C(=O)N[C@H]3C(=O)N[C@H](C(=O)N[C@H](C(=O)NCCCCN4C(=O)c5cc(O)c(O)cc5C4=O)c4cc(O)cc(O)c4-c4cc3ccc4O)[C@H](O)c3ccc(c(Cl)c3)Oc3cc2cc(c3O[C@@H]2O[C@H](CO)C(O)C(O)[C@H]2O[C@H]2CC(C)(N)[C@H](O)[C@H](C)O2)Oc2ccc(cc2Cl)[C@H]1O (stereo partly drawn) [Compound 2] | > 64 | 32 (≈ 19 µM) | 32 (≈ 19 µM) | > 64 | > 64 | 8 (≈ 4.76 µM) | > 64 | 32 (≈ 19 µM)
CN[C@H](CC(C)C)C(=O)N[C@H]1C(=O)N[C@@H](CC(N)=O)C(=O)N[C@H]2C(=O)N[C@H]3C(=O)N[C@H](C(=O)N[C@H](C(=O)NCCCNC(=O)c4ccc(O)c(O)c4Cl)c4cc(O)cc(O)c4-c4cc3ccc4O)[C@H](O)c3ccc(c(Cl)c3)Oc3cc2cc(c3O[C@@H]2O[C@H](CO)C(O)C(O)[C@H]2O[C@H]2CC(C)(N)[C@H](O)[C@H](C)O2)Oc2ccc(cc2Cl)[C@H]1O (stereo partly drawn) [Compound 4] | > 64 | > 64 | 1 (≈ 0.597 µM) | > 64 | > 64 | 2 (≈ 1.19 µM) | > 64 | 8 (≈ 4.77 µM)
CN[C@H](CC(C)C)C(=O)N[C@H]1C(=O)N[C@@H](CC(N)=O)C(=O)N[C@H]2C(=O)N[C@H]3C(=O)N[C@H](C(=O)N[C@H](C(=O)NCCCCNC(=O)c4ccc(O)c(O)c4Cl)c4cc(O)cc(O)c4-c4cc3ccc4O)[C@H](O)c3ccc(c(Cl)c3)Oc3cc2cc(c3O[C@@H]2O[C@H](CO)C(O)C(O)[C@H]2O[C@H]2CC(C)(N)[C@H](O)[C@H](C)O2)Oc2ccc(cc2Cl)[C@H]1O (stereo partly drawn) [Compound 5] | > 64 | > 64 | 1 (≈ 0.592 µM) | > 64 | > 64 | 4 (≈ 2.37 µM) | > 64 | 8 (≈ 4.73 µM)
CN[C@H](CC(C)C)C(=O)N[C@H]1C(=O)N[C@@H](CC(N)=O)C(=O)N[C@H]2C(=O)N[C@H]3C(=O)N[C@H](C(=O)N[C@H](C(=O)NCCCCCNC(=O)c4ccc(O)c(O)c4Cl)c4cc(O)cc(O)c4-c4cc3ccc4O)[C@H](O)c3ccc(c(Cl)c3)Oc3cc2cc(c3O[C@@H]2O[C@H](CO)C(O)C(O)[C@H]2O[C@H]2CC(C)(N)[C@H](O)[C@H](C)O2)Oc2ccc(cc2Cl)[C@H]1O (stereo partly drawn) [Compound 6] | > 64 | > 64 | 4 (≈ 2.35 µM) | > 64 | > 64 | 4 (≈ 2.35 µM) | > 64 | 64 (≈ 37.6 µM)
